Measured values from patent US10494337B2, “(20S)-1-α,25-dihydroxy-24,24-difluoro-19-nor-vitamin D3 analogs and their pharmaceutical uses” (Wisconsin Alumni Research Foundation, priority 2015, dated 2019).

What was measured:
[1] = system: 24-hydroxylase gene reporter plasmid in rat osteosarcoma cells; experiment: 24-hydroxylase (24-OHase) transcription, luciferase reporter; conditions: for EC50: Rattus norvegicus, read-out: 24OHase transcription ED50; for 24OHase transcription Ratio: average ratio of the 1α,25-(OH)2D3 ED50 to the ED50 for the analogue
Description: (§1) The experiments were carried out in duplicate on two different occasions. […] The binding ratio is the average ratio of the 1□,25-(OH)2D3 Ki to the Ki for the analogue. ^bInduction of differentiation of HL-60 promyelocytes to monocytes by 1□,25-(OH)2D3 (1) and the synthesized vitamin D analogues. Differentiation state was determined by measuring the percentage of cells reducing nitro blue tetrazolium (NBT). The experiment was repeated in duplicate two times. […] The differentiation activity ratio is the average ratio of the 1□,25-(OH)2D3 ED50 to the ED50 for the analogue. ^cTranscriptional assay in rat osteosarcoma cells stably transfected with a 24-hydroxylase gene reporter plasmid. […] The luciferase activity ratio is the average ratio of the 1□,25-(OH)2D3 ED50 to the ED50 for the analogue.

[2] = background statement in the discussion; cited from earlier work
[3] = background statement in the discussion, compared with 1,25-(OH)2D3; cited from earlier work
[4] = molecular target: T1, full-length recombinant rat vitamin D receptor (Rattus norvegicus, UniProt P13053); experiment: Competitive VDR binding; conditions: for VDR binding ratio: average ratio of the 1α,25-(OH)2D3 Ki to the Ki for the analogue
T1 sequence (P13053 1-423): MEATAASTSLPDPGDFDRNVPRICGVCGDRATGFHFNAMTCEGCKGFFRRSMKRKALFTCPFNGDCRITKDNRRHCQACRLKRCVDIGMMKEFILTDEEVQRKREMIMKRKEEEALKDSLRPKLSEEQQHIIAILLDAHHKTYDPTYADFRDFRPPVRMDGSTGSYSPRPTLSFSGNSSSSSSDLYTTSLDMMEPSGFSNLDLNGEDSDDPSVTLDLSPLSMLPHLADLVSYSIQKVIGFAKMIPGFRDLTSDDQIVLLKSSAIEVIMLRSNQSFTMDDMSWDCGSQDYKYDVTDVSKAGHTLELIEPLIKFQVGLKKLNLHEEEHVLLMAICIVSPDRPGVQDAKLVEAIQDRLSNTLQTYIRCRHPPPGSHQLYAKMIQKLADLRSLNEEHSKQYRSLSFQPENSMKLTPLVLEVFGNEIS
Description: as §1

HL-60 promyelocytes = experiment: HL-60 differentiation (NBT reduction); conditions: for HL-60 differentiation ratio: average ratio of the 1α,25-(OH)2D3 ED50 to the ED50 for the analogue; for HL-60 differentiation activity, in words: compared with 1α,25-(OH)2D3
Description: as §1

[5] = Bone calcium mobilization in vivo (serum calcium); set-up: species or system Sprague-Dawley rats; conditions: rats on 0.02% Ca diet, four consecutive intraperitoneal doses, serum calcium 24 hours after the last dose
Source text: 2. In vivo Studies. Bone calcium mobilization and intestinal calcium transport.
Male, weanling Sprague-Dawley rats were purchased from Harlan (Indianapolis, Ind.). The animals were group housed and placed on Diet 11 (0.47% Ca)+AEK oil for one week followed by Diet 11 (0.02% Ca)+AEK oil for 3 weeks. The rats were then switched to a diet containing 0.47% Ca^26 for one week followed by two weeks on a diet containing 0.02% Ca. Dose administration began during the last week on 0.02% Ca diet. Four consecutive intraperitoneal doses were given approximately 24 hours apart. Twenty-four hours after the last dose, blood was collected from the severed neck and the concentration of serum calcium determined as a measure of bone calcium mobilization. The first 10 cm of the intestine was also collected for the intestinal calcium transport analysis using the everted gut sac method.^25

Compound	EC50 [1]	Ki [4]	VDR binding ratio [4]	melting point	bone calcium mobilizing activity of 2MD, in words [2]	intestinal calcium absorption of 2MD, in words [3]	HL-60 differentiation ratio (HL-60 promyelocytes)	24OHase transcription Ratio [1]	bone calcium mobilization activity, in words [5]	HL-60 differentiation activity, in words (HL-60 promyelocytes)	bone calcium mobilization activity, in words ([5]; listed as 24,24-difluoro substituted 19-nor-20S-2-methylene-1α,25-(OH)2D3)	24-OHase (CYP24A1) transcriptional activity, in words ([1]; compared with 1α,25-(OH)2D3 or 2MD)	VDR binding, in words ([4]; compared with 1α,25-(OH)2D3)
C=C1/C(=C\C=C2/CCC[C@@]3(C)C2CCC3[C@H](C)CCCC(C)(C)O)C[C@@H](O)C[C@@H]1O (stereo partly drawn) [Compound 1, 1α,25-dihydroxyvitamin D3, reference compound]	0.2 nM	–	–	–	–	–	–	–	–	–	–	–	–
C=C1[C@H](O)CC(=C/C=C2\CCC[C@@]3(C)C2CCC3[C@@H](C)CCCC(C)(C)O)C[C@H]1O (stereo partly drawn) [Compound 2, 2-methylene-(20S)-1α,25-dihydroxy-19-nor vitamin D3, reference compound]	0.007 nM	0.03 nM	1.3	–	greatly increased bone calcium mobilizing activity	not increased above that found with 1,25-(OH)2D3	150	29	–	–	–	–	–

The next lines start with results.

EC50 [1]	Ki [4]	VDR binding ratio [4]	melting point	Compound	bone calcium mobilizing activity of 2MD, in words [2]	intestinal calcium absorption of 2MD, in words [3]	HL-60 differentiation ratio (HL-60 promyelocytes)	24OHase transcription Ratio [1]	bone calcium mobilization activity, in words [5]	HL-60 differentiation activity, in words (HL-60 promyelocytes)	bone calcium mobilization activity, in words ([5]; listed as 24,24-difluoro substituted 19-nor-20S-2-methylene-1α,25-(OH)2D3)	24-OHase (CYP24A1) transcriptional activity, in words ([1]; compared with 1α,25-(OH)2D3 or 2MD)	VDR binding, in words ([4]; compared with 1α,25-(OH)2D3)
0.01 nM	0.04 nM	1	163 to 164 °C	C=C1[C@H](O)CC(=C/C=C2\CCC[C@@]3(C)C2CCC3[C@H](C)CCC(F)(F)C(C)(C)O)C[C@H]1O (stereo partly drawn) [Compound 3, (20R)-1α,25-Dihydroxy-24,24-difluoro-2-methylene-19-norvitamin D3]	–	–	30	20	not as potent in vivo as analogues 4 and 6	high potency	–	–	–
0.02 nM	0.03 nM	1.3	–	C=C1[C@H](O)CC(=C/C=C2\CCC[C@@]3(C)C2CCC3[C@@H](C)CCC(F)(F)C(C)(C)O)C[C@H]1O (stereo partly drawn) [Compound 4, (20S)-1α,25-Dihydroxy-24,24-difluoro-2-methylene-19-norvitamin D3]	–	–	100	10	highest bone mobilization activity	–	bone calcium mobilization activity rivaling 2-methylene-19-nor-(20S)-1,25-dihydroxyvitamin D3 or 2MD	almost as active as 2MD	–
0.04 nM	0.02 nM	2	182 to 183 °C	C[C@H](CCC(F)(F)C(C)(C)O)C1CCC2/C(=C/C=C3C[C@@H](O)C[C@H](O)C3)CCC[C@@]21C (stereo partly drawn) [Compound 5, (20R)-1α,25-Dihydroxy-24,24-difluoro-19-norvitamin D3]	–	–	60	5	not as potent in vivo as analogues 4 and 6	high potency	–	–	slightly more effective than 1α,25-(OH)2D3
0.04 nM	0.03 nM	1.3	–	C[C@@H](CCC(F)(F)C(C)(C)O)C1CCC2/C(=C/C=C3C[C@@H](O)C[C@H](O)C3)CCC[C@@]21C (stereo partly drawn) [Compound 6, (20S)-1α,25-Dihydroxy-24,24-difluoro-19-norvitamin D3]	–	–	50	5	highest bone mobilization activity	–	–	–	–
